Source: patent publication US12063930B2, “Sulfonamide-containing 4-(N-methyl) aminopiperidine myricetin derivatives, preparation method and application” (Guizhou University, priority 2019, dated 2024)
Like-named read-outs stand apart in the source and are kept apart here.

Experiments:
[1] = test system: tobacco bacterial wilt pathogen (Rs); format: cell-based, Ralstonia solanacearum
[2] = test system: rice bacterial wilt pathogen (Xoo); format: cell-based, Xanthomonas oryzae pv. oryzae
[3] = test system: citrus canker pathogen (Xac); assay: Turbidimetric anti-plant bacterial activity test, citrus canker pathogen; format: cell-based, Xanthomonas axonopodis pv. citri

Molecule	Inhibition Rate ([1]; 50 μg/mL) [%]	Inhibition Rate ([1]; 100 μg/mL) [%]	Inhibition Rate ([2]; 50 μg/mL) [%]	Inhibition Rate ([2]; 100 μg/mL) [%]	Inhibition Rate ([3]; 50 μg/mL) [%]	Inhibition Rate ([3]; 100 μg/mL) [%]
COc1cc(OC)c2c(=O)c(OCCCN(C)C3CCN(S(=O)(=O)c4ccc5cccnc5c4)CC3)c(-c3cc(OC)c(OC)c(OC)c3)oc2c1 [Compound I9]	12.10 ± 2.57	28.82 ± 3.37	37.31 ± 5.41	40.25 ± 1.39	32.80 ± 2.29	42.50 ± 1.87
COc1cc(OC)c2c(=O)c(OCCCCN(C)C3CCN(S(=O)(=O)c4ccccc4[N+](=O)[O-])CC3)c(-c3cc(OC)c(OC)c(OC)c3)oc2c1 [Compound I20]	21.26 ± 8.58	4.11 ± 3.12	90.29 ± 4.84	94.47 ± 8.30	96.57 ± 0.31	97.30 ± 1.97
bismerthiazol [Leaf Blight Azole, reference compound]	57.63	65.69	39.14	60.50	50.60	66.63
COc1cc(OC)c2c(=O)c(OCCCCN(C)C3CCN(S(=O)(=O)c4ccc5cccnc5c4)CC3)c(-c3cc(OC)c(OC)c(OC)c3)oc2c1 [Compound I19]	37.71 ± 3.71	35.21 ± 6.56	38.72 ± 1.36	51.83 ± 2.05	85.44 ± 1.04	89.05 ± 0.47
COc1ccc(S(=O)(=O)N2CCC(N(C)CCCOc3c(-c4cc(OC)c(OC)c(OC)c4)oc4cc(OC)cc(OC)c4c3=O)CC2)cc1 [Compound I5]	18.66 ± 9.95	49.03 ± 5.33	56.37 ± 2.44	68.42 ± 4.76	84.37 ± 1.91	95.86 ± 1.19
COc1cc(OC)c2c(=O)c(OCCCN(C)C3CCN(S(=O)(=O)c4ccc(C)cc4)CC3)c(-c3cc(OC)c(OC)c(OC)c3)oc2c1 [Compound I1]	47.86 ± 5.55	58.01 ± 6.08	75.88 ± 1.80	81.34 ± 0.57	93.55 ± 0.85	99.20 ± 4.48
COc1cc(OC)c2c(=O)c(OCCCN(C)C3CCN(S(=O)(=O)c4ccccn4)CC3)c(-c3cc(OC)c(OC)c(OC)c3)oc2c1 [Compound I8]	47.65 ± 0.35	48.99 ± 2.35	52.14 ± 3.12	59.94 ± 3.35	85.13 ± 2.35	88.03 ± 1.19
COc1ccc(S(=O)(=O)N2CCC(N(C)CCCCOc3c(-c4cc(OC)c(OC)c(OC)c4)oc4cc(OC)cc(OC)c4c3=O)CC2)cc1 [Compound I15]	3.13 ± 5.57	24.02 ± 2.41	94.39 ± 0.62	96.11 ± 0.71	62.21 ± 1.33	67.94 ± 1.42
COc1cc(OC)c2c(=O)c(OCCCN(C)C3CCN(S(=O)(=O)c4ccc5ccccc5c4)CC3)c(-c3cc(OC)c(OC)c(OC)c3)oc2c1 [Compound I2]	34.17 ± 5.87	30.28 ± 8.79	88.53 ± 5.30	99.01 ± 4.53	92.76 ± 2.12	99.55 ± 5.61
COc1cc(OC)c2c(=O)c(OCCCN(C)C3CCN(S(=O)(=O)c4ccc(F)cc4)CC3)c(-c3cc(OC)c(OC)c(OC)c3)oc2c1 [Compound I3]	56.37 ± 3.41	55.25 ± 2.35	9.99 ± 7.64	53.31 ± 3.55	88.81 ± 1.32	94.73 ± 1.63
Nc1nnc([S-])s1.Nc1nnc([S-])s1.[Cu+2] [Thiabenone, thiodiazole copper, reference compound]	20.86 ± 4.42	40.20	58.92	70.12	44.97	70.68
COc1cc(OC)c2c(=O)c(OCCCCN(C)C3CCN(S(=O)(=O)c4cccs4)CC3)c(-c3cc(OC)c(OC)c(OC)c3)oc2c1 [Compound I14]	20.44 ± 5.03	8.17 ± 3.75	92.19 ± 0.98	95.49 ± 0.98	66.18 ± 0.61	73.80 ± 3.68
COc1cc(OC)c2c(=O)c(OCCCCN(C)C3CCN(S(=O)(=O)c4ccccn4)CC3)c(-c3cc(OC)c(OC)c(OC)c3)oc2c1 [Compound I18]	46.22 ± 3.27	30.11 ± 1.65	70.98 ± 3.04	78.12 ± 4.25	88.69 ± 0.71	93.05 ± 0.55
COc1cc(OC)c2c(=O)c(OCCCN(C)C3CCN(S(=O)(=O)c4ccc([N+](=O)[O-])cc4)CC3)c(-c3cc(OC)c(OC)c(OC)c3)oc2c1 [Compound I6]	26.01 ± 6.89	59.09 ± 4.18	52.08 ± 6.32	60.99 ± 5.49	96.13 ± 1.63	99.01 ± 0.64
COc1cc(OC)c2c(=O)c(OCCCCN(C)C3CCN(S(=O)(=O)c4ccc(F)cc4)CC3)c(-c3cc(OC)c(OC)c(OC)c3)oc2c1 [Compound I13]	43.16 ± 3.98	49.25 ± 4.14	99.72 ± 1.10	100.00 ± 0.67	47.25 ± 4.42	48.08 ± 1.17
COc1cc(OC)c2c(=O)c(OCCCCN(C)C3CCN(S(=O)(=O)c4ccccc4)CC3)c(-c3cc(OC)c(OC)c(OC)c3)oc2c1 [Compound I17]	45.66 ± 3.26	38.06 ± 1.91	89.16 ± 1.26	98.29 ± 2.42	99.00 ± 0.40	99.52 ± 0.87
COc1cc(OC)c2c(=O)c(OCCCCN(C)C3CCN(S(=O)(=O)c4ccc5ccccc5c4)CC3)c(-c3cc(OC)c(OC)c(OC)c3)oc2c1 [Compound I12]	45.75 ± 3.32	36.46 ± 7.42	89.81 ± 1.34	95.44 ± 4.92	29.56 ± 7.62	35.81 ± 2.40
COc1cc(OC)c2c(=O)c(OCCCCN(C)C3CCN(S(=O)(=O)c4ccc([N+](=O)[O-])cc4)CC3)c(-c3cc(OC)c(OC)c(OC)c3)oc2c1 [Compound I16]	27.52 ± 7.50	26.66 ± 4.37	55.67 ± 6.24	70.41 ± 2.62	66.33 ± 3.56	74.41 ± 1.31
COc1cc(OC)c2c(=O)c(OCCCN(C)C3CCN(S(=O)(=O)c4cccs4)CC3)c(-c3cc(OC)c(OC)c(OC)c3)oc2c1 [Compound I4]	46.44 ± 8.48	58.19 ± 8.11	21.34 ± 3.45	48.16 ± 4.24	76.83 ± 2.59	81.47 ± 3.58
COc1cc(OC)c2c(=O)c(OCCCN(C)C3CCN(S(=O)(=O)c4ccccc4[N+](=O)[O-])CC3)c(-c3cc(OC)c(OC)c(OC)c3)oc2c1 [Compound I10]	57.89 ± 3.30	94.99 ± 1.50	59.65 ± 2.25	67.71 ± 2.22	38.60 ± 4.17	45.69 ± 0.50
COc1cc(OC)c2c(=O)c(OCCCN(C)C3CCN(S(=O)(=O)c4ccccc4)CC3)c(-c3cc(OC)c(OC)c(OC)c3)oc2c1 [Compound I7]	50.24 ± 2.21	52.83 ± 6.66	48.01 ± 3.21	53.46 ± 2.80	89.57 ± 2.14	92.48 ± 0.65
COc1cc(OC)c2c(=O)c(OCCCCN(C)C3CCN(S(=O)(=O)c4ccc(C)cc4)CC3)c(-c3cc(OC)c(OC)c(OC)c3)oc2c1 [Compound I11]	46.83 ± 6.39	93.56 ± 0.55	71.76 ± 4.56	87.57 ± 2.76	47.25 ± 5.84	54.94 ± 8.29
